Assay results reported in PubChem BioAssay AID1963838 (Molecular Pharmacology Branch, DTP, NCI, 2024).

System: 855422-203-R-J1-PDC complex spheroid viability
Test: Anticancer human tumor 855422-203-R-J1-PDC patient-derived bladder carcinoma cell line growth inhibition [POLQ]
Settings: for IC50: curve of first compound; for viability, T/C: stronger effect = lower value
In short: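 Patient-derived tumour cells were co-cultured with HUVEC and mesenchymal stem cells as multicellular spheroids at 37 °C. They were treated with POLQ inhibitors (novobiocin, ART-558, RP6685) alone or combined with other agents. Top concentrations were at or near clinical Cmax (otherwise 10 microM; SN-38 at 1 microM), decreasing in half-log steps.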

[1] = second compound 0.0316 µM, first compound 0.0316 µM
[2] = second compound 0.0316 µM, first compound 0.1 µM
[3] = second compound 0.0316 µM, first compound 0.316 µM
[4] = second compound 0.0316 µM, first compound 1 µM
[5] = second compound 0.0316 µM, first compound 3.16 µM
[6] = second compound 0.0316 µM, first compound 10 µM
[7] = second compound 0.1 µM, first compound 0.0316 µM
[8] = second compound 0.1 µM, first compound 0.1 µM
[9] = second compound 0.1 µM, first compound 0.316 µM
[10] = second compound 0.1 µM, first compound 1 µM
[11] = second compound 0.1 µM, first compound 3.16 µM
[12] = second compound 0.1 µM, first compound 10 µM
[13] = second compound 0.316 µM, first compound 0.0316 µM
[14] = second compound 0.316 µM, first compound 0.1 µM
[15] = second compound 0.316 µM, first compound 0.316 µM
[16] = second compound 0.316 µM, first compound 1 µM
[17] = second compound 0.316 µM, first compound 3.16 µM
[18] = second compound 0.316 µM, first compound 10 µM
[19] = second compound 1 µM, first compound 0.0316 µM
[20] = second compound 1 µM, first compound 0.1 µM
[21] = second compound 1 µM, first compound 0.316 µM
[22] = second compound 1 µM, first compound 1 µM
[23] = second compound 1 µM, first compound 3.16 µM
[24] = second compound 1 µM, first compound 10 µM
[25] = second compound 3.16 µM, first compound 0.0316 µM
[26] = second compound 3.16 µM, first compound 0.1 µM
[27] = second compound 3.16 µM, first compound 0.316 µM
[28] = second compound 3.16 µM, first compound 1 µM
[29] = second compound 3.16 µM, first compound 3.16 µM
[30] = second compound 3.16 µM, first compound 10 µM
[31] = second compound 10 µM, first compound 0.0316 µM
[32] = second compound 10 µM, first compound 0.1 µM
[33] = second compound 10 µM, first compound 0.316 µM
[34] = second compound 10 µM, first compound 1 µM
[35] = second compound 10 µM, first compound 3.16 µM
[36] = second compound 10 µM, first compound 10 µM
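Also: spheroids exposed to compounds for seven days before readout.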

O=C(Nc1ccc(O)c(NS(=O)(=O)c2ccc(F)cc2)c1)c1ccc(-c2ccccc2)cc1 + COC1C(OC(N)=O)C(O)C(Oc2ccc3c(O)c(NC(=O)c4ccc(O)c(CC=C(C)C)c4)c(=O)oc3c2C)OC1(C)C
IC50 (second compound 0.0316 µM): 8.24 µM
IC50 (second compound 0.1 µM): 8.44 µM
IC50 (second compound 0.316 µM): 8.45 µM
IC50 (second compound 1 µM): 8.14 µM
IC50 (second compound 3.16 µM): 7.83 µM
IC50 (second compound 10 µM): 7.63 µM
viability, T/C [1]: 101%
viability, T/C [2]: 101%
viability, T/C [3]: 119%
viability, T/C [4]: 116%
viability, T/C [5]: 106%
viability, T/C [6]: 38.7%
viability, T/C [7]: 109%
viability, T/C [8]: 105%
viability, T/C [9]: 110%
viability, T/C [10]: 98.2%
viability, T/C [11]: 103%
viability, T/C [12]: 40.8%
viability, T/C [13]: 105%
viability, T/C [14]: 110%
viability, T/C [15]: 113%
viability, T/C [16]: 110%
viability, T/C [17]: 106%
viability, T/C [18]: 40.4%
viability, T/C [19]: 106%
viability, T/C [20]: 111%
viability, T/C [21]: 111%
viability, T/C [22]: 113%
viability, T/C [23]: 98.8%
viability, T/C [24]: 39%
viability, T/C [25]: 109%
viability, T/C [26]: 122%
viability, T/C [27]: 112%
viability, T/C [28]: 111%
viability, T/C [29]: 94.2%
viability, T/C [30]: 37.9%
viability, T/C [31]: 107%
viability, T/C [32]: 104%
viability, T/C [33]: 108%
viability, T/C [34]: 102%
viability, T/C [35]: 101%
viability, T/C [36]: 34.6%

COc1cccc2c1C(=O)c1c(O)c3c(c(O)c1C2=O)CC(O)(C(=O)CO)CC3OC1CC(N)C(O)C(C)O1 (centres undefined) + Cc1cccc(N(C)C(=O)C2C(O)CCN2c2nc(C)cc(C(F)(F)F)c2C#N)c1
IC50 (second compound 0.0316 µM): < 0.0316 µM
IC50 (second compound 0.1 µM): < 0.0316 µM
IC50 (second compound 0.316 µM): < 0.0316 µM
IC50 (second compound 1 µM): < 0.0316 µM
IC50 (second compound 3.16 µM): < 0.0316 µM
IC50 (second compound 10 µM): < 0.0316 µM
viability, T/C [1]: 16.1%
viability, T/C [2]: 10.2%
viability, T/C [3]: 2.55%
viability, T/C [4]: 0.3%
viability, T/C [5]: 0.66%
viability, T/C [6]: 2.13%
viability, T/C [7]: 15.8%
viability, T/C [8]: 10.1%
viability, T/C [9]: 2.47%
viability, T/C [10]: 0.26%
viability, T/C [11]: 0.48%
viability, T/C [12]: 2.11%
viability, T/C [13]: 16.4%
viability, T/C [14]: 9.49%
viability, T/C [15]: 3.59%
viability, T/C [16]: 0.33%
viability, T/C [17]: 0.43%
viability, T/C [18]: 1.8%
viability, T/C [19]: 14.4%
viability, T/C [20]: 9.02%
viability, T/C [21]: 2.18%
viability, T/C [22]: 0.24%
viability, T/C [23]: 0.8%
viability, T/C [24]: 1.14%
viability, T/C [25]: 14.1%
viability, T/C [26]: 8.42%
viability, T/C [27]: 2.03%
viability, T/C [28]: 0.25%
viability, T/C [29]: 0.6%
viability, T/C [30]: 2.24%
viability, T/C [31]: 13.5%
viability, T/C [32]: 9.55%
viability, T/C [33]: 1.76%
viability, T/C [34]: 0.25%
viability, T/C [35]: 0.59%
viability, T/C [36]: 1.9%
